Assay results reported in the NIST ThermoML archive (doi:10.1016/j.fluid.2017.05.012).
Numbers after ± are expanded uncertainties.

Settings: Liquid, Ebulliometric method (Recirculating still)

CCCO [propan-1-ol]
vapor or sublimation pressure (370.2 K): 101 ± 1 kPa

CCCOC(C)=O [propyl ethanoate]
vapor or sublimation pressure (374.8 K): 101 ± 1 kPa

O [water]
vapor or sublimation pressure (372.9 K): 101 ± 1 kPa
